System: HuH-7 replicon cells 5–15 and 9–13 (HCV replication)
Assay: Inhibition of viral replication in HuH-7 replicon cells (HCV RNA / GAPDH RNA by multiplex RT-PCR)
Format: cell-based
Conditions: Hepatitis C virus, 72 h; inhibiting 50% of replication; HuH-7 replicon cells, 3 days; read-out: IC50
Protocol: Compounds were evaluated for inhibition of viral replication according to published procedures (Bartenschlager, R., et. al., Science, 1999, 285, 110) with modifications as follows.
HuH-7 replicon cells 5–15 and 9–13 were cultured in Dulbecco's minimal essential medium (DMEM) containing high glucose and supplemented with 10% fetal bovine serum (FBS), L-glutamine (2 mM), non-essential amino acids (1×), Penicillin (100 IU/mL)/Streptomycin (100 μg/mL) and G418 (Geneticin, 750 μg/mL). Unless otherwise specified, all media components were obtained from Invitrogen. Replicon cell line stocks were maintained as sub-confluent monolayers by passaging every Monday (1:6 split) and Thursday (1:10 split) and incubated at 37° C. with 5% CO2. Tissue culture plates (96-well white clear bottom plates, Corning #3610) were seeded at 7×10^3 cells/well and incubated for 24 hours prior to addition of the compounds.
Compounds in dry powder form were diluted in DMSO (30 mM stock). Serial dilutions of each Compound in DMSO (10 mM–0.1 mM) were performed in a 96-well polypropylene plate using a microtiter format. Culture media (200 μl) was added to the corresponding wells of a sterile 96-well round bottom plate. Diluted compound (2 μl) was added to the corresponding wells of the medial plate (final compound concentrations: 100 μM–1 μM). Culture media was removed from the corresponding wells of the 96-well plate containing the replicon cells and 150 μl diluted compound added. Media containing 1% DMSO and a serially diluted IFN were included on each plate. The cultures were incubated at 37° C. with 5% CO2 for 3 days. Cultures were observed visually for cytotoxicity or compound precipitation prior to RNA extraction described below.
Total cellular RNA was extracted by spin column technology (RNeasy 96, Qiagen) using the vacuum methodology according to the manufacturer's protocol. In brief, culture media was removed and 100 μl RLT lysis buffer containing 0.14M β-mercaptoethanol (β-ME) was added to each well. The plate was kept flat on the laboratory bench and shaken vigorously to lyse the cells. An equal volume of 70% ETOH was mixed with the lysate and added to the corresponding columns of the RNeasy 96-well plate. Vacuum was applied to draw the lysate through the filters. After ventilating the plate, buffer RW1 (1 mL) was drawn through each column. The waste tray was emptied and the filters washed twice with buffer RPE (1 mL/wash). After ventilating the tray, the RNeasy plate was removed and the bottom of the plate struck several times on a stack of paper towels to remove excess wash buffer. The waste tray was removed from the vacuum apparatus and the RNeasy 96-well plate dried by applying vacuum for 10 minutes. Total cellular RNA was eluted from the columns with two washes of 60 μl RNase-free water.
Relative quantitative multiplex RT-PCR was performed using TaqMan (TM) EZ RT Core Reagent kit (Perkin Elmer) according to the manufacturer's protocol (PE Applied Biosystems User Bulletin #2). Primer 061 (NT 61–82) and 139 (NT 139–158) amplifying a short region in the 5′ untranslated region of the HCV genome were utilized at 300 nM final concentrations. Probe #3 (NT 97–119) labeled with FAM reporter dye was utilized at 200 nM final concentration. Pre-developed human GAPDH primers and probe labeled with VIC reporter dye were obtained from PE Applied Biosystems (# 4310884E) and used according to the manufacturer's protocol. TM RT-PCR master mix was prepared containing the above primers/probe for both target RNA. Total cellular RNA (2 μl) was added to the reaction tubes of a 96-well optical plate that corresponded to the wells of the replicon culture plate. The final volume of each reaction was 50 μl. A standard curve was prepared from ten-fold serial dilutions of total cellular RNA extracated from 10^6 replicon cells and eluted in 30 μl RNase-free water. […]

Row | SMILES | IC50 [µM]
1 | COc1cccc(OCC(=O)N/N=C/c2ccccc2OS(=O)(=O)c2ccc(C(F)(F)F)cc2)c1 [Compound 53, 2-((E)-{2-[2-(3-methoxyphenoxy)acetyl]hydrazono}methyl)-phenyl 4-(trifluoromethyl)benzenesulfonate] | < 5
2 | O=C(CCc1ccco1)N/N=C/c1ccccc1OS(=O)(=O)c1ccc(C(F)(F)F)cc1 [Compound 54, 2-((E)-{2-[3-(2-furyl)propanoyl]hydrazono}methyl)phenyl4-(trifluoromethyl)benzenesulfonate] | < 5
3 | COc1cc(CC(=O)N/N=C/c2ccccc2OS(=O)(=O)c2ccc(C(F)(F)F)cc2)cc(OC)c1OC [Compound 55, 2-((E)-{2-[2-(3,4,5-trimethoxyphenyl)acetyl]hydrazono}methyl)-phenyl 4-(trifluoromethyl)benzenesulfonate] | > 50
4 | O=C(Cc1ccccc1OCc1ccccc1)N/N=C/c1ccccc1OS(=O)(=O)c1ccc(C(F)(F)F)cc1 [Compound 56, 2-[(E)-(2-{2-[2-(benzyloxy)phenyl]acetyl}hydrazono)methyl]-phenyl 4-(trifluoromethyl)benzenesulfonate] | < 5
5 | O=C(Cc1ccccc1Oc1ccccc1)N/N=C/c1ccccc1OS(=O)(=O)c1ccc(C(F)(F)F)cc1 [Compound 57, 2-((E)-{2-[2-(2-phenoxyphenyl)acetyl]hydrazono}methyl)-phenyl 4-(trifluoromethyl)benzenesulfonate] | < 5
6 | COc1cccc(CCC(=O)N/N=C/c2ccccc2OS(=O)(=O)c2ccc(C(F)(F)F)cc2)c1 [Compound 58, 2-((E)-{2-[3-(3-methoxyphenyl)propanoyl]hydrazono}-methyl)phenyl 4-(trifluoromethyl)benzenesulfonate] | > 50
7 | O=C(CSc1ccccc1)N/N=C/c1ccccc1OS(=O)(=O)c1ccc(C(F)(F)F)cc1 [Compound 59, 2-((E)-{2-[2-(phenylthio)acetyl]hydrazono}methyl)-phenyl 4-(trifluoromethyl)benzenesulfonate] | < 5
8 | O=C(Cc1ccc(I)cc1)N/N=C/c1ccccc1OS(=O)(=O)c1ccc(C(F)(F)F)cc1 [Compound 60, 2-((E)-{2-[2-(4-iodophenyl)acetyl]hydrazono}methyl)-phenyl 4-(trifluoromethyl)benzenesulfonate] | < 5
9 | O=C(Cc1cncc(Br)c1)N/N=C/c1ccccc1OS(=O)(=O)c1ccc(C(F)(F)F)cc1 [Compound 61, 2-((E)-{2-[2-(5-bromopyridin-3-yl)acetyl]hydrazono}methyl)phenyl 4-(trifluoromethyl)benzenesulfonate] | < 5
10 | O=C(Cc1cccc(Br)c1)N/N=C/c1ccccc1OS(=O)(=O)c1ccc(C(F)(F)F)cc1 [Compound 62, 2-((E)-{2-[2-(3-bromophenyl)acetyl]hydrazono}methyl)-phenyl 4-(trifluoromethyl)benzenesulfonate] | < 5
11 | O=C(Cc1ccc(Cl)nc1)N/N=C/c1ccccc1OS(=O)(=O)c1ccc(C(F)(F)F)cc1 [Compound 63, 2-((E)-{2-[2-(6-chloropyridin-3-yl)acetyl]hydrazono}methyl)phenyl 4-(trifluoromethyl)benzenesulfonate] | < 5
12 | O=C(COc1ccccc1)N/N=C/c1ccccc1OS(=O)(=O)c1ccc(C(F)(F)F)cc1 [Compound 64, 2-{(E)-[2-(2-phenoxyacetyl)hydrazono]methyl}phenyl4-(trifluoromethyl)benzenesulfonate] | < 5
13 | O=C(Cc1cccc2occc12)N/N=C/c1ccccc1OS(=O)(=O)c1ccc(C(F)(F)F)cc1 [Compound 65, 2-((E)-{2-[2-(1-benzofuran-4-yl)acetyl]hydrazono}methyl)phenyl 4-(trifluoromethyl)benzenesulfonate] | 5 to 50
14 | COc1cc(OC)c(CC(=O)N/N=C/c2ccccc2OS(=O)(=O)c2ccc(C(F)(F)F)cc2)c(OC)c1 [Compound 66, 2-((E)-{2-[2-(2,4,6-trimethoxyphenyl)acetyl]hydrazono}methyl)-phenyl 4-(trifluoromethyl)benzenesulfonate] | 5 to 50
15 | CCOc1ccc(CC(=O)N/N=C/c2ccccc2OS(=O)(=O)c2ccc(C(F)(F)F)cc2)cc1 [Compound 67, 2-((E)-{2-[2-(4-ethoxyphenyl)acetyl]hydrazono}methyl)-phenyl 4-(trifluoromethyl)benzenesulfonate] | 5 to 50
16 | O=C(Cc1ccc2ccccc2c1)N/N=C/c1ccccc1OS(=O)(=O)c1ccc(C(F)(F)F)cc1 [Compound 68, 2-((E)-{2-[2-(2-naphthyl)acetyl]hydrazono}methyl)phenyl4-(trifluoromethyl)benzenesulfonate] | < 5
17 | CS(=O)(=O)c1ccc(CC(=O)N/N=C/c2ccccc2OS(=O)(=O)c2ccc(C(F)(F)F)cc2)cc1 [Compound 69, 2-[(E)-(2-{2-[4-(methylsulfonyl)phenyl]acetyl}hydrazono)-methyl]phenyl 4-(trifluoromethyl)benzenesulfonate] | > 50
18 | COc1ccc(CC(=O)N/N=C/c2ccccc2OS(=O)(=O)c2ccc(C(F)(F)F)cc2)cc1Br [Compound 70, 2-((E)-{2-[2-(3-bromo-4-methoxyphenyl)acetyl]hydrazono}methyl)-phenyl 4-(trifluoromethyl)benzenesulfonate] | < 5
19 | O=C(N/N=C/c1ccccc1OS(=O)(=O)c1ccc(C(F)(F)F)cc1)c1cccc2ccccc12 [Compound 71, 2-{(E)-[2-(1-naphthoyl)hydrazono]methyl}phenyl 4-(trifluoromethyl)benzenesulfonate] | < 5
20 | O=C(N/N=C/c1ccccc1OS(=O)(=O)c1ccc(C(F)(F)F)cc1)c1cc(Cl)ccc1Cl [Compound 72, 2-{(E)-[2-(2,5-dichlorobenzoyl)hydrazono]methyl}phenyl4-(trifluoromethyl)benzenesulfonate] | < 5
21 | O=C(N/N=C/c1ccccc1OS(=O)(=O)c1ccc(C(F)(F)F)cc1)c1ccccc1Cl [Compound 73, 2-{(E)-[2-(2-chlorobenzoyl)hydrazono]methyl}phenyl 4-(trifluoromethyl)benzenesulfonate] | < 5
22 | O=C(N/N=C/c1ccccc1OS(=O)(=O)c1ccc(C(F)(F)F)cc1)c1ccc(Cl)cc1Cl [Compound 74, 2-{(E)-[2-(2,4-dichlorobenzoyl)hydrazono]methyl}phenyl4-(trifiuoromethyl)benzenesulfonate] | < 5
23 | O=C(N/N=C/c1ccccc1OS(=O)(=O)c1ccc(C(F)(F)F)cc1)OCc1ccccc1 [Compound 75, benzyl (2E)-2-[2-({[4-(trifluoromethyl)phenyl]sulfonyl}oxy)-benzylidene]hydrazinecarboxylate] | < 5
24 | O=C(N/N=C/c1ccccc1OS(=O)(=O)c1ccc(C(F)(F)F)cc1)c1cccnc1 [Compound 76, 2-{(E)-[2-(pyridin-3-ylcarbonyl)hydrazono]methyl}phenyl 4-(trifluoromethyl)benzenesulfonate] | 5 to 50
25 | O=C(N/N=C/c1ccccc1OS(=O)(=O)c1ccc(C(F)(F)F)cc1)c1ccccc1[N+](=O)[O-] [Compound 77, 2-{(E)-[2-(2-nitrobenzoyl)hydrazono]methyl}phenyl 4-(trifluoromethyl)benzenesulfonate] | < 5
26 | Cc1ccc(S(=O)(=O)N/N=C/c2ccccc2OS(=O)(=O)c2ccc(C(F)(F)F)cc2)cc1 [Compound 78, 2-((E)-{2-[(4-methylphenyl)sulfonyl]hydrazono}methyl)-phenyl 4-(trifluoromethyl)benzenesulfonate] | 5 to 50
27 | CN(C)c1ccc(C(=O)N/N=C/c2ccccc2OS(=O)(=O)c2ccc(C(F)(F)F)cc2)cc1 [Compound 79, 2-((E)-{2-[4-(dimethylamino)benzoyl]hydrazono}methyl)-phenyl 4-(trifluoromethyl)benzenesulfonate] | 5 to 50

Reference: patent publication US7026339B2, “Inhibitors of HCV NS5B polymerase” (priority 2003, dated 2006)
